≈ marks a conversion by molar mass, not a printed value. Calls of active or inactive are those of the source. The rule behind the calls is not given here.
What was measured:
Enterococcus faecalis [1] = assay: Induction of morphological changes in vancomycin-resistant Enterococcus faecalis ATCC51299 assessed as appearance of clustered bacterial surface at 4 times MIC measured for 5 hrs by field emission scanning electron microscopy based analysis; format: functional, organism-based
Staphylococcus aureus [2] = assay: Antibacterial activity against methicillin resistant Staphylococcus aureus infected in female Kunming mouse model of skin infection assessed as reduction in wound size at 4 mg/kg administered daily pre-infected for 4 hrs followed by compound administration for 7 days; format: functional, organism-based; settings: time 7.0 day
[3] = Toxicity in Kunming mouse assessed as morphological abnormalities at 4 mg/kg administered daily and measured after 7 days; format: organism-based; settings: in vivo, 168 h, time 7 day
Staphylococcus aureus [4] = assay: Antibacterial activity against methicillin resistant Staphylococcus aureus infected in female Kunming mouse model of skin infection assessed as reduction in bacterial load of wound at 4 mg/kg administered daily pre-infected for 4 hrs followed by compound administration for 7 days; format: functional, organism-based; settings: time 7.0 day
Enterococcus faecalis [5] = assay: Antibiofilm activity in vancomycin-resistant Enterococcus faecalis ATCC51299 assessed as increase in biofilm destruction incubated for 24 hrs by crystal violet staining based analysis; format: functional, organism-based
Staphylococcus aureus [6] = assay: Induction of morphological changes in methicillin-resistant Staphylococcus aureus assessed as appearance of died bacterial surface at 4 times MIC measured for 5 hrs by field emission scanning electron microscopy based analysis; format: functional, organism-based
Enterococcus faecalis [7] = assay: Antibacterial activity against vancomycin-resistant Enterococcus faecalis ATCC51299 measured after 20 passages by broth microdilution method; format: functional, organism-based
Staphylococcus aureus [8] = assay: Antibacterial activity against methicillin resistant Staphylococcus aureus infected in female Kunming mouse model of skin infection assessed as suppression of purulent secretion at 4 mg/kg administered daily pre-infected for 4 hrs followed by compound administration for 7 days; format: functional, organism-based; settings: time 7.0 day
Staphylococcus aureus [9] = assay: Antibacterial activity against methicillin resistant Staphylococcus aureus infected in female Kunming mouse model of skin infection assessed as reduction in inflammatory cell infiltration at 4 mg/kg administered daily pre-infected for 4 hrs followed by compound administration for 7 days; format: functional, organism-based; settings: time 7.0 day
Staphylococcus aureus [10] = assay: Antibacterial activity against methicillin resistant Staphylococcus aureus infected in female Kunming mouse model of skin infection assessed as increase in neovascularization at 4 mg/kg administered daily pre-infected for 4 hrs followed by compound administration for 7 days; format: functional, organism-based; settings: time 7.0 day
Enterococcus faecalis [11] = assay: Bactericidal activity against vancomycin-resistant Enterococcus faecalis ATCC51299 measured after 24 hrs by CLSI based broth microdilution method; format: functional
Enterococcus faecalis [12] = assay: Antimicrobial activity against vancomycin-resistant Enterococcus faecalis ATCC51299 assessed as reduction in bacterial growth in presence of peptidoglycan by checkerboard broth dilution method; format: functional, organism-based
Enterococcus faecalis [13] = assay: (§1) Antibacterial activity against vancomycin-resistant Enterococcus faecalis ATCC51299 infected in female Kunming mouse model of abdominal infection assessed as decrease in bacterial load in spleen at 4 mg/kg administered daily pre-infected for 12 hrs followed by compound administration for 3 days; format: functional, organism-based; settings: time 3.0 day
Enterococcus faecalis [14] = assay: (§2) Antibacterial activity against vancomycin-resistant Enterococcus faecalis ATCC51299 infected in female Kunming mouse model of abdominal infection assessed as decrease in granulocytes at 4 mg/kg administered daily pre-infected for 12 hrs followed by compound administration for 3 days; format: functional, organism-based; settings: time 3.0 day
Enterococcus faecalis [15] = assay: Antibacterial activity against vancomycin-resistant Enterococcus faecalis ATCC51299 infected in female Kunming mouse model of abdominal infection assessed as decrease in bacterial load in kidney at 4 mg/kg administered daily pre-infected for 12 hrs followed by compound administration for 3 days; format: functional, organism-based; settings: time 3.0 day
Enterococcus faecalis [16] = assay: Antibacterial activity against vancomycin-resistant Enterococcus faecalis ATCC51299 infected in female Kunming mouse model of abdominal infection assessed as decrease in bacterial load in liver at 4 mg/kg administered daily pre-infected for 12 hrs followed by compound administration for 3 days; format: functional, organism-based; settings: time 3.0 day
Enterococcus faecalis [17] = assay: Antibacterial activity against vancomycin-resistant Enterococcus faecalis ATCC51299 infected in female Kunming mouse model of abdominal infection assessed as watery degeneration of hepatocytes at 4 mg/kg administered daily pre-infected for 12 hrs followed by compound administration for 3 days; format: functional, organism-based; settings: time 3.0 day
Staphylococcus aureus [18] = assay: Antibiofilm activity in methicillin-resistant Staphylococcus aureus assessed as increase in biofilm destruction at 1 times MIC incubated for 24 hrs by crystal violet staining based analysis relative to control; format: functional
Enterococcus faecalis [19] = assay: Antibiofilm activity in vancomycin-resistant Enterococcus faecalis ATCC51299 assessed as increase in biofilm destruction at 1 times MIC incubated for 24 hrs by crystal violet staining based analysis relative to control; format: functional
Enterococcus faecalis [20] = assay: as §1, with “peritoneal effusion” for “spleen”; format: functional, organism-based; settings: time 3.0 day
Enterococcus faecalis [21] = assay: as §2, with “inflammatory cell infiltration” for “granulocytes”; format: functional, organism-based; settings: time 3.0 day

C=CCCCCCCCCCCCc1cc(O)cc(O)c1C(=O)O
Activity (Enterococcus faecalis [1]): Active | Activity (Staphylococcus aureus [2]): Active | Activity [3]: Non-Toxic | Activity (Staphylococcus aureus [4]): Active | Activity (Enterococcus faecalis [5]): Dose-Dependent Effect | Activity (Staphylococcus aureus [6]): Active | Activity (Enterococcus faecalis [7]): inactive | Activity (Staphylococcus aureus [8]): Active | Activity (Staphylococcus aureus [9]): Active | Activity (Staphylococcus aureus [10]): Active | MBC (Enterococcus faecalis [11]): 4 µg/mL (≈ 12 µM) | Activity (Enterococcus faecalis [12]): inactive

C=CCCCCCCCCCCCc1cc(O)cc(O)c1
Activity (Enterococcus faecalis [1]): Active | Activity (Enterococcus faecalis [13]): Active | Activity (Enterococcus faecalis [14]): Active | Activity (Enterococcus faecalis [15]): Active | Activity (Enterococcus faecalis [16]): Active | Activity (Enterococcus faecalis [17]): Active | Activity (Enterococcus faecalis [5]): Dose-Dependent Effect | Activity (Staphylococcus aureus [6]): Active | Activity (Staphylococcus aureus [18]): >50% | Activity (Enterococcus faecalis [19]): >50% | Activity (Enterococcus faecalis [7]): inactive | MBC (Enterococcus faecalis [11]): 4 µg/mL (≈ 13.8 µM) | Activity (Enterococcus faecalis [20]): Active | Activity (Enterococcus faecalis [12]): inactive | Activity (Enterococcus faecalis [21]): Active

— ChEMBL document CHEMBL6071135, “New resorcylic acid derivatives of Lysimachia tengyuehensis against MRSA and VRE by interfering with bacterial metabolic imbalance” (Eur J Med Chem, 2024)
